Reference: ChEMBL document CHEMBL5543140 (J Med Chem, 2024)
pKi: −log10 of the molar value. Activity calls are given as the source filed them. The rule behind the calls is not given here.

Key:
[1] = AUCinf in Wistar rat brain at 5 mg/kg, po measured upto 48 hrs; assay type: ADME, organism-based
[2] = target: Muscarinic acetylcholine receptor M5 (Homo sapiens) (UniProt P08912); experiment: Displacement of [3H]4-DAMP from human recombinant muscarinic M5 receptor expressed in HEK293 cells at 10 uM incubated for 60 mins by radiometric based scintillation counter assay relative to control; assay type: cell-based
[3] = target: 5-hydroxytryptamine receptor 7 (Homo sapiens, UniProt P34969); experiment: Displacement of [3H]LSD from 5-HT7 receptor (unknown origin) assessed as inhibition binding at 10 uM relative to control
[4] = Half life in Wistar rat plasma at 5 mg/kg, po measured upto 48 hrs; assay type: ADME, organism-based
[5] = Half life in Wistar rat plasma at 1 mg/kg, iv measured upto 48 hrs; assay type: ADME, organism-based
[6] = Metabolic stability in human liver microsomes assessed as half life at 1 uM incubated for 120 mins in presence of NADPH; assay type: ADME, Microsome
Hippocampus [7] = experiment: Induction of neuroplasticity in C57BL/6J mouse assessed as increase in CREB1 mRNA expression in brain hippocampus at 3 mg/kg, sc single dose by RT-PCR analysis; assay type: functional, organism-based
[8] = Ex vivo binding in C57BL/6J mouse brain frontal cortex assessed as inhibition of [3H]Cimbi-36 binding at 1 mg/kg, sc measured after 40 mins by liquid scintillation counting analysis (reference value: 0%); assay type: functional
[9] = target: T1, 5-hydroxytryptamine receptor 1A (Homo sapiens) (UniProt P08908); experiment: Agonist activity at human 5-HT1A receptor expressed in HEK293T cells co-transfected with 22F-Glosensor assessed as maximal inhibition of cAMP production measured after 30 mins incubation by Microbeta2Micro-plate counter analysis relative to control; assay type: functional, cell-based; settings: filed as agonist
T1 sequence (whole entry): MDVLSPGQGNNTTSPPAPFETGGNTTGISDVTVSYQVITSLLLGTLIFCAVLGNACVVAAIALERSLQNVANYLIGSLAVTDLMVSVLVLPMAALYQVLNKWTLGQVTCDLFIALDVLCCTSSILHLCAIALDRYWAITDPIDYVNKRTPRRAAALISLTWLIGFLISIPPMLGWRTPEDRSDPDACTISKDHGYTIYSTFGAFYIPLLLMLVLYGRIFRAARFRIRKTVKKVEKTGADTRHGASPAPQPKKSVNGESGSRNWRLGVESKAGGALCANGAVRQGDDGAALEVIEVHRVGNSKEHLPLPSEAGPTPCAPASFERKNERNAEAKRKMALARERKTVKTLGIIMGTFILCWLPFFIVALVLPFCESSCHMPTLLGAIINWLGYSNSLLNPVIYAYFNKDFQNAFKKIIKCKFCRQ

[10] = Tmax in male Sprague-Dawley rat brain at 1 mg/kg, iv measured upto 8 hrs by LC-MS/MS analysis; assay type: ADME, organism-based
[11] = Clearance in male Sprague-Dawley rat plasma at 1 mg/kg, iv measured upto 8 hrs by LC-MS/MS analysis; assay type: ADME, organism-based
[12] = target: 5-hydroxytryptamine receptor 1A (Homo sapiens, UniProt P08908); experiment: Displacement of [3H]-8-OH-DPAT from 5-HT1A receptor (unknown origin) assessed as inhibition binding
[13] = AUClast in male Sprague-Dawley rat plasma at 1 mg/kg, iv measured upto 8 hrs by LC-MS/MS analysis; assay type: ADME, organism-based
[14] = Drug metabolism in human hepatocytes at 10 uM by HRAMS analysis; assay type: ADME, cell-based, Hepatocyte
[15] = Ex vivo binding in C57BL/6J mouse brain frontal cortex assessed as inhibition of [3H]Cimbi-36 binding at 1 mg/kg, sc measured after 10 mins by liquid scintillation counting analysis (reference value: 0%); assay type: functional
[16] = Renal clearance in beagle dog at 0.4 mg/kg, iv measured upto 24 hrs; assay type: ADME, organism-based, Canis lupus familiaris; settings: in vivo
Mus musculus = experiment: Psychedelic effect in C57BL/6J mouse assessed as induction of 5-HT2A receptor dependent maximal head-twitch responses by visual observation at 1 mg/kg, sc measured after 24 hrs; assay type: functional, organism-based
[17] = target: 5-hydroxytryptamine receptor 2C (Homo sapiens) (UniProt P28335); experiment: Agonist activity at human 5-HT2C receptor expressed in HEK293 cells assessed as maximal IP2 production measured after 30 mins incubation by HTRF assay relative to control; assay type: functional, cell-based; settings: filed as agonist
[18] = target: 5-hydroxytryptamine receptor 1B (Homo sapiens, UniProt P28222); experiment: Displacement of [3H]GR125743 from 5-HT1B receptor (unknown origin) assessed as inhibition binding at 10 uM relative to control
[19] = Half life in male Sprague-Dawley rat plasma at 1 mg/kg, iv measured upto 8 hrs by LC-MS/MS analysis; assay type: ADME, organism-based
[20] = AUCinf in beagle dog at 0.4 mg/kg, iv measured upto 24 hrs; assay type: ADME, organism-based, Canis lupus familiaris; settings: in vivo
Hippocampus [21] = experiment: Induction of neuroplasticity in C57BL/6J mouse assessed as increase in NPTN mRNA expression in brain hippocampus at 3 mg/kg, sc single dose by RT-PCR analysis; assay type: functional, organism-based

5-hydroxytryptamine receptor 7, sequence (P34969 whole entry): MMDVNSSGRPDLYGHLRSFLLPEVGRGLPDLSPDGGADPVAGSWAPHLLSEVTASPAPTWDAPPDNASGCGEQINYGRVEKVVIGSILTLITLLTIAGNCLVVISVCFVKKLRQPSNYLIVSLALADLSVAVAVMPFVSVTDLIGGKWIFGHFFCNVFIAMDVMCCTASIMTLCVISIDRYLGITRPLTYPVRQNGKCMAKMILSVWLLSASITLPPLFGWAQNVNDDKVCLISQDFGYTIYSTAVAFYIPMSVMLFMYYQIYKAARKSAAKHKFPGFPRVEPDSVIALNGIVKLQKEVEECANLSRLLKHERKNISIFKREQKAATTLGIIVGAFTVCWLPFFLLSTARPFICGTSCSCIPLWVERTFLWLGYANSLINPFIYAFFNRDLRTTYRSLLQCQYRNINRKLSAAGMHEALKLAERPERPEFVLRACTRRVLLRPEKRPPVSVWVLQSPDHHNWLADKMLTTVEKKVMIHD
5-hydroxytryptamine receptor 2C (Homo sapiens), sequence (P28335 whole entry): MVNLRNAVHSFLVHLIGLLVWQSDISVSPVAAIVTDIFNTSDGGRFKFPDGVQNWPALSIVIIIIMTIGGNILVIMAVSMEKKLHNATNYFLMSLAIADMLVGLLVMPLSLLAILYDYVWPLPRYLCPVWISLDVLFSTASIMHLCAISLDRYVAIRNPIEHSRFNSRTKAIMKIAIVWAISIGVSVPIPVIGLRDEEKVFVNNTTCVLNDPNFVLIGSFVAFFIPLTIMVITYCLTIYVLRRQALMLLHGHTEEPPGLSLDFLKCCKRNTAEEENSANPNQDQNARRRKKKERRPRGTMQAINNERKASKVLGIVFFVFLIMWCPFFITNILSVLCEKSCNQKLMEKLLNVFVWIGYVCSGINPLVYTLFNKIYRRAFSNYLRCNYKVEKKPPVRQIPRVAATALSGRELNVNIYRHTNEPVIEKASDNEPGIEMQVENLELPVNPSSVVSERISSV
Muscarinic acetylcholine receptor M5 (Homo sapiens), sequence (P08912 whole entry): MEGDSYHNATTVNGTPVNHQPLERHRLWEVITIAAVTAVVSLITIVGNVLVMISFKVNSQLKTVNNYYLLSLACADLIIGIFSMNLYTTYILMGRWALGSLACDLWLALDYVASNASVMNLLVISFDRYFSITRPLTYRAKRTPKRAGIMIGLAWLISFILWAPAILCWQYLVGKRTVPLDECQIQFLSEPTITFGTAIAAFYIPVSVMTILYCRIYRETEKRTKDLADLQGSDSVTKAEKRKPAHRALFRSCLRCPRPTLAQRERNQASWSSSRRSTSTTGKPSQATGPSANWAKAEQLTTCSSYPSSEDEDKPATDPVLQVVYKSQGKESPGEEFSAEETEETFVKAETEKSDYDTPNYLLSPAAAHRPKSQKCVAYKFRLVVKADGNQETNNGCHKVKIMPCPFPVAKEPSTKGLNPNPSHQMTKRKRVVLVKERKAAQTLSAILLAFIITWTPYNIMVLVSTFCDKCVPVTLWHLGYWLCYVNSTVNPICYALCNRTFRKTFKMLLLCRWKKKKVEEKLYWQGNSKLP
5-hydroxytryptamine receptor 1B, sequence (P28222 whole entry): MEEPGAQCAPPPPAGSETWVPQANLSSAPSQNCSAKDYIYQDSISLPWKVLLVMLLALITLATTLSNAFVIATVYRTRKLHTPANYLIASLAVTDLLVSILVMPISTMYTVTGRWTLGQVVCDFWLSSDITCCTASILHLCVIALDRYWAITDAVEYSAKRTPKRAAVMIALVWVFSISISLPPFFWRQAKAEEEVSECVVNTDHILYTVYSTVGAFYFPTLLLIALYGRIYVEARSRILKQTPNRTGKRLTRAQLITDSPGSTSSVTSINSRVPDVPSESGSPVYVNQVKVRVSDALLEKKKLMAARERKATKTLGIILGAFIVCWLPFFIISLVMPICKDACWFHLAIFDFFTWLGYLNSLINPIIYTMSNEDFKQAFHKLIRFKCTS

Molecule COc1cc([Se]C(F)(F)F)c(OC)cc1CCN.Cl has an AUC(0-inf) [1] of 2880 ng·h/mL, an inhibition [2] of 83% and an inhibition [3] of 86%. It also gave a half-life [4] of 3.53 h, a half-life [5] of 0.78 h and a half-life at 1 µM [6] of over 2 h. The Activity (Hippocampus [7]) was “inactive”, the inhibition in vivo at 1 mg/kg [8] was 33% and the Emax [9] was 92%. It also gave a Tmax [10] of 0.25 h, a clearance [11] of 79.5 mL/min/kg and a pKi [12] of 7.49. For the same molecule, the AUC(0-t) at 8 h [13] was 207 ng·h/mL, the Drug metabolism [14] was “Metabolite_Notdetected” and the inhibition in vivo at 1 mg/kg [15] was 9%. For the same molecule, the CL renal at 24 h [16] was 0.6 mL/min/kg, the Activity (Mus musculus) was “inactive” and the Emax [17] was 91%. It also gave an inhibition [18] of 83%, a half-life [19] of 1.53 h and an AUC(0-inf) [20] of 446 ng·h/mL. For the same molecule, the Activity (Hippocampus [21]) was “inactive”.
